PMC12655526, “Effective Oral Delivery of Teriparatide Using Organoclay—Polymethacrylate Nanocomposites for Osteoporosis Therapy” (Pharmaceutics, 2025)

What was measured:
pepsin = target: T1, pepsin (Sus scrofa, UniProt P00791); test: Gastrointestinal stability in simulated gastric fluid (SGF); assay type: in vitro ADME; settings: SGF pH 1.2, 5 μg/mL pepsin, 0.5 mg/mL teriparatide, 37 °C, 100 rpm; CD after release in PBS pH 7.4
T1 construct: purchased Sigma-Aldrich Co. (St Louis, MO, USA)
Method: (§1) The conformational integrity of teriparatide encapsulated within nanocomplexes was assessed under simulated gastrointestinal conditions using enzyme-supplemented media. Specifically, samples were incubated in simulated gastric fluid (SGF; pH 1.2, containing 5 μg/mL pepsin) or simulated intestinal fluid (SIF; pH 7.4, supplemented with 20 μg/mL trypsin). Nanoparticles corresponding to 0.5 mg/mL of teriparatide were dispersed in 1 mL of either SGF or SIF and incubated at 37 °C with stirring at 100 rpm. Digestion was quenched with 0.2 mL of 0.2 M NaOH (for SGF) or 0.1 M HCl (for SIF) at predefined times. The nanoparticles were then isolated via centrifugation, redispersed in PBS (pH 7.4), and incubated for 2 h. The conformation of teriparatide following its release from nanoparticles was analyzed by CD spectroscopy to verify structural stability.

[1] = tested on: dexamethasone-induced osteoporosis rats; test: Serum bone-turnover biomarkers in dexamethasone-induced osteoporosis rats; assay type: in vivo, rat; settings: 8 weeks daily, oral EE/AC-Teri 16 mg/kg or sc teriparatide 0.04 mg/kg, n = 6
Method: The therapeutic effect of orally delivered EE/AC-Teri was examined in dexamethasone-induced osteoporosis rats under an Institutional Animal Care and Use committee (IACUC)-approved protocol (IACUC-2023-039-2). Male Sprague–Dawley rats (280–300 g) were randomly allocated to four groups (n = 6 each). The control group received a daily subcutaneous saline. In the osteoporotic model group, 0.1 mg/kg dexamethasone was administered subcutaneously each day to induce bone loss. The injectable teriparatide treatment group was given a combination of daily subcutaneous dexamethasone (0.1 mg/kg) and teriparatide (0.04 mg/kg). The final group was administered EE/AC-Teri orally (16 mg/kg of teriparatide), in combination with daily subcutaneous dexamethasone (0.1 mg/kg). After 8 week-treatment, blood was drawn for biochemical analysis. […] Serum osteocalcin (OCN), procollagen type I N-terminal propeptide (PINP), C-terminal telopeptide of type I collagen (CTx), tartrate-resistant acid phosphatase 5b (TRAP5b), and calcium were quantified with commercial ELISA kits (Thermo Fisher Scientific, Waltham, MA, USA) according to the manufacturer’s instructions. […] Quantitative parameters describing trabecular bone microarchitecture were assessed using Analyze software (ver 12.0; AnalyzeDirect, Overland Park, KS, USA).

[2] = tested on: dexamethasone-induced osteoporosis rats; test: Micro-CT and histology of femora in dexamethasone-induced osteoporosis rats; assay type: in vivo, rat
Method: The therapeutic effect of orally delivered EE/AC-Teri was examined in dexamethasone-induced osteoporosis rats under an Institutional Animal Care and Use committee (IACUC)-approved protocol (IACUC-2023-039-2). Male Sprague–Dawley rats (280–300 g) were randomly allocated to four groups (n = 6 each). The control group received a daily subcutaneous saline. In the osteoporotic model group, 0.1 mg/kg dexamethasone was administered subcutaneously each day to induce bone loss. The injectable teriparatide treatment group was given a combination of daily subcutaneous dexamethasone (0.1 mg/kg) and teriparatide (0.04 mg/kg). The final group was administered EE/AC-Teri orally (16 mg/kg of teriparatide), in combination with daily subcutaneous dexamethasone (0.1 mg/kg). After 8 week-treatment, blood was drawn for biochemical analysis. Blood (0.6 mL) was collected once on day 57 via the jugular vein under 1.5% isoflurane anesthesia in a Tabletop Anesthesia System (Harvard Apparatus, Cambridge, MA, USA). Serum osteocalcin (OCN), procollagen type I N-terminal propeptide (PINP), C-terminal telopeptide of type I collagen (CTx), tartrate-resistant acid phosphatase 5b (TRAP5b), and calcium were quantified with commercial ELISA kits (Thermo Fisher Scientific, Waltham, MA, USA) according to the manufacturer’s instructions. At study completion, animals were euthanized using a 30%/min displacement of chamber air with compressed CO2. Both femora were excised and fixed in 4% neutral-buffered formalin for 48 h. Fixed bones were processed for histological and structural analysis. Some samples were paraffin-embedded and sectioned for histological examination using hematoxylin and eosin (H&E) staining. The remaining specimens were subjected to structural evaluation via micro-computed tomography (micro-CT; the Korea Basic Science Institute). Images were acquired using a 90 kV/80 μA X-ray source over a 4 min acquisition time, with the scan field confined to 10 mm. Reconstructed images were generated at an isotropic voxel resolution of 20 μm. Quantitative parameters describing trabecular bone microarchitecture were assessed using Analyze software (ver 12.0; AnalyzeDirect, Overland Park, KS, USA).

trypsin = test: Gastrointestinal stability in simulated intestinal fluid (SIF); assay type: in vitro ADME; settings: SIF pH 7.4, 20 μg/mL trypsin, 0.5 mg/mL teriparatide, 37 °C, 100 rpm; CD after release in PBS pH 7.4
Method: as §1

[3] = 8 weeks daily, oral EE/AC-Teri 16 mg/kg or sc teriparatide 0.04 mg/kg, dexamethasone rats, femur

T1 sequence (P00791 60-385): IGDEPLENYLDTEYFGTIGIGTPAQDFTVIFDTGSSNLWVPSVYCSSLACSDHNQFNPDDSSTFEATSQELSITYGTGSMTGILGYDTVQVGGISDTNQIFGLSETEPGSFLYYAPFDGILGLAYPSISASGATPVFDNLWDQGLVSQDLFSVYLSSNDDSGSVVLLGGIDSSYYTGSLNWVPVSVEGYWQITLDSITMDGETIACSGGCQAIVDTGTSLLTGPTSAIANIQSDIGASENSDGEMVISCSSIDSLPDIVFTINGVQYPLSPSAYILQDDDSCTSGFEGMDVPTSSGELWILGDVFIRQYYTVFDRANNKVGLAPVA

In the case of `CC[C@H](C)[C@H](NC(=O)[C@H](CCC(=O)O)NC(=O)[C@H](CO)NC(=O)[C@@H](NC(=O)[C@@H](N)CO)C(C)C)C(=O)N[C@@H](CCC(N)=O)C(=O)N[C@@H](CC(C)C)C(=O)N[C@@H](CCSC)C(=O)N[C@@H](Cc1cnc[nH]1)C(=O)N[C@@H](CC(N)=O)C(=O)N[C@@H](CC(C)C)C(=O)NCC(=O)N[C@@H](CCCCN)C(=O)N[C@@H](Cc1cnc[nH]1)C(=O)N[C@@H](CC(C)C)C(=O)N[C@@H](CC(N)=O)C(=O)N[C@@H](CO)C(=O)N[C@@H](CCSC)C(=O)N[C@@H](CCC(=O)O)C(=O)N[C@@H](CCCN=C(N)N)C(=O)N[C@H](C(=O)N[C@@H](CCC(=O)O)C(=O)N[C@@H](Cc1c[nH]c2ccccc12)C(=O)N[C@@H](CC(C)C)C(=O)N[C@@H](CCCN=C(N)N)C(=O)N[C@@H](CCCCN)C(=O)N[C@@H](CCCCN)C(=O)N[C@@H](CC(C)C)C(=O)N[C@@H](CCC(N)=O)C(=O)N[C@@H](CC(=O)O)C(=O)N[C@H](C(=O)N[C@@H](Cc1cnc[nH]1)C(=O)N[C@@H](CC(N)=O)C(=O)N[C@@H](Cc1ccccc1)C(=O)O)C(C)C)C(C)C` [teriparatide], the “Conformational integrity of teriparatide in SGF (CD spectra)” value (pepsin) is reported as “pronounced conformational alterations in both SGF and SIF”, the “Serum calcium / hypercalcemia” value [1] is reported as “did not produce sustained hypercalcemia” and the “Trabecular architecture by histology (H&E)” value [2, 3] is reported as “partially restored architecture”. The “Trabecular architecture by micro-CT imaging” value [2, 3] was “mitigated these lesions, preserving a denser, interconnected trabecular network”, the “Bone mineral density (BMD)” value ([2]; micro-CT, 8 weeks, oral EE/AC-Teri 16 mg/kg or sc teriparatide 0.04 mg/kg, versus dexamethasone control, n = 6) was “significantly restored” and the “Bone volume fraction (BV/TV)” value ([2]; micro-CT, 8 weeks, sc teriparatide 0.04 mg/kg, versus dexamethasone control, n = 6) was “significantly restored”. For the same compound, the “Conformational integrity of teriparatide in SIF (CD spectra)” value (trypsin) was “pronounced conformational alterations in both SGF and SIF”.
